Test results: ChEMBL document CHEMBL3046635, “Synthesis and Herbicidal Activity of New Pyrazole-4-carboxamide Derivatives” (J Pestic Sci, 2004)
Active and inactive are the calls of the source.

Assays:
Rotala indica [1] = experiment: Pre-emergence herbicidal activity against Rotala indica at 2000 g a.i/ha measured after 14 days; type: functional, organism-based
Rotala indica [2] = experiment: Post-emergence herbicidal activity against Rotala indica assessed as bleaching of stem/leaf parts; type: functional, organism-based; further: test concentration or dose not given here
Ammannia multiflora [3] = experiment: Post-emergence herbicidal activity against Ammannia multiflora assessed as bleaching of stem/leaf parts; type: functional, organism-based; further: test concentration or dose not given here
Pontederia vaginalis [4] = experiment: Pre-emergence herbicidal activity against Monochoria vaginalis at 2000 g a.i/ha measured after 14 days; type: functional, organism-based
Eleocharis acicularis [5] = experiment: Post-emergence herbicidal activity against Eleocharis acicularis assessed as bleaching of stem/leaf parts; type: functional, organism-based; further: test concentration or dose not given here
Ammannia multiflora [6] = experiment: Pre-emergence herbicidal activity against Ammannia multiflora assessed as bleaching of stem/leaf parts; type: functional, organism-based
Oryza sativa [7] = experiment: Phytotoxicity against Oryza sativa cv. Koshihikari (rice) at 2000 g a.i/ha measured after 14 days; type: organism-based; conditions: in vivo, 336 h
Echinochloa oryzicola [8] = experiment: Pre-emergence herbicidal activity against Echinochloa oryzicola at 2000 g a.i/ha measured after 14 days; type: functional, organism-based
Elatine triandra [9] = experiment: Pre-emergence herbicidal activity against Elatine triandra at 2000 g a.i/ha measured after 14 days; type: functional, organism-based
[10] = test system: Schoenoplectiella juncoides; experiment: Pre-emergence herbicidal activity against Schoenoplectiella juncoides assessed as bleaching of stem/leaf parts; type: functional, organism-based
Ammannia multiflora [11] = experiment: Pre-emergence herbicidal activity against Ammannia multiflora at 2000 g a.i/ha measured after 14 days; type: functional, organism-based
Echinochloa oryzicola [12] = experiment: Pre-emergence herbicidal activity against Echinochloa oryzicola assessed as bleaching of stem/leaf parts; type: functional, organism-based
Lindernia procumbens [13] = experiment: Post-emergence herbicidal activity against Lindernia procumbens assessed as bleaching of stem/leaf parts; type: functional, organism-based; further: test concentration or dose not given here
Elatine triandra [14] = experiment: Pre-emergence herbicidal activity against Elatine triandra assessed as bleaching of stem/leaf parts; type: functional, organism-based
Lindernia procumbens [15] = experiment: Pre-emergence herbicidal activity against Lindernia procumbens assessed as bleaching of stem/leaf parts; type: functional, organism-based
[16] = test system: Schoenoplectiella juncoides; experiment: Post-emergence herbicidal activity against Schoenoplectiella juncoides assessed as bleaching of stem/leaf parts; type: functional, organism-based; further: test concentration or dose not given here
Lindernia procumbens [17] = experiment: Pre-emergence herbicidal activity against Lindernia procumbens at 2000 g a.i/ha measured after 14 days; type: functional, organism-based
Pontederia vaginalis [18] = experiment: Post-emergence herbicidal activity against Monochoria vaginalis assessed as bleaching of stem/leaf parts; type: functional, organism-based; further: test concentration or dose not given here
Eleocharis acicularis [19] = experiment: Pre-emergence herbicidal activity against Eleocharis acicularis assessed as bleaching of stem/leaf parts; type: functional, organism-based
[20] = test system: Schoenoplectiella juncoides; experiment: Pre-emergence herbicidal activity against Schoenoplectiella juncoides at 2000 g a.i/ha measured after 14 days; type: functional, organism-based
Cyperus difformis [21] = experiment: Pre-emergence herbicidal activity against Cyperus difformis assessed as bleaching of stem/leaf parts; type: functional, organism-based
Cyperus difformis [22] = experiment: Pre-emergence herbicidal activity against Cyperus difformis at 2000 g a.i/ha measured after 14 days; type: functional, organism-based
Rotala indica [23] = experiment: Pre-emergence herbicidal activity against Rotala indica assessed as bleaching of stem/leaf parts; type: functional, organism-based
Cyperus difformis [24] = experiment: Post-emergence herbicidal activity against Cyperus difformis assessed as bleaching of stem/leaf parts; type: functional, organism-based; further: test concentration or dose not given here
Elatine triandra [25] = experiment: Post-emergence herbicidal activity against Elatine triandra assessed as bleaching of stem/leaf parts; type: functional, organism-based; further: test concentration or dose not given here
Echinochloa oryzicola [26] = experiment: Post-emergence herbicidal activity against Echinochloa oryzicola assessed as bleaching of stem/leaf parts; type: functional, organism-based; further: test concentration or dose not given here
Pontederia vaginalis [27] = experiment: Pre-emergence herbicidal activity against Monochoria vaginalis assessed as bleaching of stem/leaf parts; type: functional, organism-based
Cyperus difformis [28] = experiment: Pre-emergence herbicidal activity against Cyperus difformis at 100 g a.i/ha measured after 14 days; type: functional, organism-based
Oryza sativa [29] = experiment: Phytotoxicity against Oryza sativa cv. Koshihikari (rice) at 500 g a.i/ha measured after 14 days; type: organism-based; conditions: in vivo, 336 h
[30] = test system: Schoenoplectiella juncoides; experiment: Pre-emergence herbicidal activity against Schoenoplectiella juncoides at 500 g a.i/ha measured after 14 days; type: functional, organism-based
Eleocharis acicularis [31] = experiment: Pre-emergence herbicidal activity against Eleocharis acicularis at 100 g a.i/ha measured after 14 days; type: functional, organism-based
Ammannia multiflora [32] = experiment: Pre-emergence herbicidal activity against Ammannia multiflora at 100 g a.i/ha measured after 14 days; type: functional, organism-based
Eleocharis acicularis [33] = experiment: Pre-emergence herbicidal activity against Eleocharis acicularis at 500 g a.i/ha measured after 14 days; type: functional, organism-based
Oryza sativa [34] = experiment: Phytotoxicity against Oryza sativa cv. Koshihikari (rice) at 100 g a.i/ha measured after 14 days; type: organism-based; conditions: in vivo, 336 h
Elatine triandra [35] = experiment: Pre-emergence herbicidal activity against Elatine triandra at 100 g a.i/ha measured after 14 days; type: functional, organism-based
Ammannia multiflora [36] = experiment: Pre-emergence herbicidal activity against Ammannia multiflora at 500 g a.i/ha measured after 14 days; type: functional, organism-based
Cyperus difformis [37] = experiment: Pre-emergence herbicidal activity against Cyperus difformis at 500 g a.i/ha measured after 14 days; type: functional, organism-based
Rotala indica [38] = experiment: Pre-emergence herbicidal activity against Rotala indica at 100 g a.i/ha measured after 14 days; type: functional, organism-based
Elatine triandra [39] = experiment: Pre-emergence herbicidal activity against Elatine triandra at 500 g a.i/ha measured after 14 days; type: functional, organism-based
Lindernia procumbens [40] = experiment: Pre-emergence herbicidal activity against Lindernia procumbens at 100 g a.i/ha measured after 14 days; type: functional, organism-based
[41] = test system: Schoenoplectiella juncoides; experiment: Pre-emergence herbicidal activity against Schoenoplectiella juncoides at 100 g a.i/ha measured after 14 days; type: functional, organism-based
Rotala indica [42] = experiment: Pre-emergence herbicidal activity against Rotala indica at 500 g a.i/ha measured after 14 days; type: functional, organism-based
Pontederia vaginalis [43] = experiment: Pre-emergence herbicidal activity against Monochoria vaginalis at 100 g a.i/ha measured after 14 days; type: functional, organism-based
Echinochloa oryzicola [44] = experiment: Pre-emergence herbicidal activity against Echinochloa oryzicola at 500 g a.i/ha measured after 14 days; type: functional, organism-based
Echinochloa oryzicola [45] = experiment: Pre-emergence herbicidal activity against Echinochloa oryzicola at 100 g a.i/ha measured after 14 days; type: functional, organism-based
Pontederia vaginalis [46] = experiment: Pre-emergence herbicidal activity against Monochoria vaginalis at 500 g a.i/ha measured after 14 days; type: functional, organism-based
Lindernia procumbens [47] = experiment: Pre-emergence herbicidal activity against Lindernia procumbens at 500 g a.i/ha measured after 14 days; type: functional, organism-based

Measured: Activity

CCCN(CC)C(=O)c1cn(C)nc1OCc1cccc(C)c1
inactive: Echinochloa oryzicola [8]
Non-toxic: Oryza sativa [7]
active: Rotala indica [1] | Rotala indica [2] | Ammannia multiflora [3] | Pontederia vaginalis [4] | Eleocharis acicularis [5] | Ammannia multiflora [6] | Elatine triandra [9] | [10] | Ammannia multiflora [11] | Echinochloa oryzicola [12] | Lindernia procumbens [13] | Elatine triandra [14] | Lindernia procumbens [15] | [16] | Lindernia procumbens [17] | Pontederia vaginalis [18] | Eleocharis acicularis [19] | [20] | Cyperus difformis [21] | Cyperus difformis [22] | Rotala indica [23] | Cyperus difformis [24] | Elatine triandra [25] | Echinochloa oryzicola [26] | Pontederia vaginalis [27]

Cn1cc(C(=O)NOc2ccccc2Cl)c(OCc2cccc(C(F)(F)F)c2)n1
inactive: [41] | Echinochloa oryzicola [45]
Non-toxic: Oryza sativa [29] | Oryza sativa [34]
active: Cyperus difformis [28] | Rotala indica [2] | Ammannia multiflora [3] | Eleocharis acicularis [5] | Ammannia multiflora [6] | [30] | Eleocharis acicularis [31] | [10] | Ammannia multiflora [32] | Echinochloa oryzicola [12] | Lindernia procumbens [13] | Eleocharis acicularis [33] | Elatine triandra [14] | Lindernia procumbens [15] | [16] | Elatine triandra [35] | Ammannia multiflora [36] | Cyperus difformis [37] | Rotala indica [38] | Pontederia vaginalis [18] | Eleocharis acicularis [19] | Elatine triandra [39] | Cyperus difformis [21] | Lindernia procumbens [40] | Rotala indica [23] | Cyperus difformis [24] | Elatine triandra [25] | Rotala indica [42] | Pontederia vaginalis [43] | Echinochloa oryzicola [26] | Echinochloa oryzicola [44] | Pontederia vaginalis [27] | Pontederia vaginalis [46] | Lindernia procumbens [47]

Cn1cc(C(=O)NOc2ccc(F)cc2)c(OCc2cccc(C(F)(F)F)c2)n1
Non-toxic: Oryza sativa [29] | Oryza sativa [34]
inactive: Cyperus difformis [28] | [41] | Echinochloa oryzicola [45]
active: Rotala indica [2] | Ammannia multiflora [3] | Eleocharis acicularis [5] | Ammannia multiflora [6] | [30] | Eleocharis acicularis [31] | [10] | Ammannia multiflora [32] | Echinochloa oryzicola [12] | Lindernia procumbens [13] | Eleocharis acicularis [33] | Elatine triandra [14] | Lindernia procumbens [15] | [16] | Elatine triandra [35] | Ammannia multiflora [36] | Cyperus difformis [37] | Rotala indica [38] | Pontederia vaginalis [18] | Eleocharis acicularis [19] | Elatine triandra [39] | Cyperus difformis [21] | Lindernia procumbens [40] | Rotala indica [23] | Cyperus difformis [24] | Elatine triandra [25] | Rotala indica [42] | Pontederia vaginalis [43] | Echinochloa oryzicola [26] | Echinochloa oryzicola [44] | Pontederia vaginalis [27] | Pontederia vaginalis [46] | Lindernia procumbens [47]

Cn1cc(C(=O)NOc2ccc(F)cc2F)c(OCc2cccc(C(F)(F)F)c2)n1
inactive: [41] | Echinochloa oryzicola [45]
active: Cyperus difformis [28] | Rotala indica [2] | Ammannia multiflora [3] | Eleocharis acicularis [5] | Ammannia multiflora [6] | [30] | Eleocharis acicularis [31] | [10] | Ammannia multiflora [32] | Echinochloa oryzicola [12] | Lindernia procumbens [13] | Eleocharis acicularis [33] | Elatine triandra [14] | Lindernia procumbens [15] | [16] | Elatine triandra [35] | Ammannia multiflora [36] | Cyperus difformis [37] | Rotala indica [38] | Pontederia vaginalis [18] | Eleocharis acicularis [19] | Elatine triandra [39] | Cyperus difformis [21] | Lindernia procumbens [40] | Rotala indica [23] | Cyperus difformis [24] | Elatine triandra [25] | Rotala indica [42] | Pontederia vaginalis [43] | Echinochloa oryzicola [26] | Echinochloa oryzicola [44] | Pontederia vaginalis [27] | Pontederia vaginalis [46] | Lindernia procumbens [47]
Non-toxic: Oryza sativa [29] | Oryza sativa [34]

Cn1cc(C(=O)Nc2ccc(Cl)cc2Cl)c(OCc2cccc(C(F)(F)F)c2)n1
Non-toxic: Oryza sativa [34]
Toxic: Oryza sativa [29]
active: Cyperus difformis [28] | Rotala indica [2] | Ammannia multiflora [3] | Eleocharis acicularis [5] | Ammannia multiflora [6] | [30] | Eleocharis acicularis [31] | [10] | Ammannia multiflora [32] | Echinochloa oryzicola [12] | Lindernia procumbens [13] | Eleocharis acicularis [33] | Elatine triandra [14] | Lindernia procumbens [15] | [16] | Elatine triandra [35] | Ammannia multiflora [36] | Cyperus difformis [37] | Rotala indica [38] | Pontederia vaginalis [18] | Eleocharis acicularis [19] | Elatine triandra [39] | Cyperus difformis [21] | Lindernia procumbens [40] | Rotala indica [23] | Cyperus difformis [24] | Elatine triandra [25] | Rotala indica [42] | Pontederia vaginalis [43] | Echinochloa oryzicola [26] | Echinochloa oryzicola [44] | Pontederia vaginalis [27] | Pontederia vaginalis [46] | Lindernia procumbens [47]
inactive: [41] | Echinochloa oryzicola [45]

CCONC(=O)c1cn(CC)nc1OCc1cccc(C(F)(F)F)c1
Non-toxic: Oryza sativa [29] | Oryza sativa [34]
inactive: Eleocharis acicularis [31] | [41] | Pontederia vaginalis [43]
active: Cyperus difformis [28] | Rotala indica [2] | Ammannia multiflora [3] | Eleocharis acicularis [5] | Ammannia multiflora [6] | [30] | [10] | Ammannia multiflora [32] | Echinochloa oryzicola [12] | Lindernia procumbens [13] | Eleocharis acicularis [33] | Elatine triandra [14] | Lindernia procumbens [15] | [16] | Elatine triandra [35] | Ammannia multiflora [36] | Cyperus difformis [37] | Rotala indica [38] | Pontederia vaginalis [18] | Eleocharis acicularis [19] | Elatine triandra [39] | Cyperus difformis [21] | Lindernia procumbens [40] | Rotala indica [23] | Cyperus difformis [24] | Elatine triandra [25] | Rotala indica [42] | Echinochloa oryzicola [26] | Echinochloa oryzicola [44] | Pontederia vaginalis [27] | Echinochloa oryzicola [45] | Pontederia vaginalis [46] | Lindernia procumbens [47]
